For nine compounds, Activity and IC50 results are on record in ChEMBL document CHEMBL3580641, “Bioactive Maleic Anhydrides and Related Diacids from the Aquatic Hyphomycete Tricladium castaneicola” (J Nat Prod, 2015).

Molecules are shown by their SMILES. Calls of active or inactive are those of the source. No cut-off for these calls is given here.

The test system of assay [1] is Phytophthora capsici. The experiment in a line: Antifungal activity against Phytophthora capsici NBRC 30696 after 22 to 24 hrs by paper disk diffusion method. It is filed as functional, organism-based.
Assay [2] deals with B16. The experiment in a line: Cytotoxicity against mouse B16 cells assessed as cell viability after 48 hrs by MTT assay. Particulars: B16, 48 h. It is filed as functional, cell-based.

Regarding `C[C@@H]1[C@H](O)[C@@H](C)/C=C/C=C/C=C/C=C/C=C/C=C/C=C/[C@H](O[C@@H]2O[C@H](C)[C@@H](O)[C@H](N)[C@@H]2O)C[C@@H]2O[C@](O)(C[C@@H](O)C[C@@H](O)[C@H](O)CC[C@@H](O)C[C@@H](O)CC(=O)O[C@H]1C)C[C@H](O)[C@H]2C(=O)O`, in assay [1], the outcome was Active.
Same read-out and setting: in the case of `C=C(C(=O)O)/C(=C\CCCC[C@@H](O)CC)C(=O)O` it was “Active”.
With `CC1=C(/C=C/CCC/C=C/C(=O)O)C(=O)OC1=O`, the outcome in assay [1] was Active.
Regarding `C=C(C(=O)O)/C(=C\CCCCCCCO)C(=O)O`, the outcome in assay [1] was Active.
Same read-out and setting: in the case of `CC1=C(/C=C/CCCCC(C)O)C(=O)OC1=O` (stereo unspecified) it was “inactive”; in that of `CC1=C(/C=C/CCC/C=C/CO)C(=O)OC1=O`, “inactive”.
For `CCCCCC/C=C/C(C(=O)OC)=C(\C)C(=O)OC`, the result in assay [1] was Active. The IC50 in assay [2] came to 30 µM.
In the same order, the values of `CCCCCC/C=C/C1=C(C)C(=O)OC1=O` are “Active” and 80 µM.
For the compound `CC(=O)O[C@H]1C(=O)[C@@]2(C)[C@H]([C@H](OC(=O)c3ccccc3)[C@]3(O)C[C@H](OC(=O)[C@H](O)[C@@H](NC(=O)c4ccccc4)c4ccccc4)C(C)=C1C3(C)C)[C@]1(OC(C)=O)CO[C@@H]1C[C@@H]2O` [PACLITAXEL], the IC50 in assay [2] worked out at 56 µM.
